Experimental data from patent US20050158280A1, “Method of reducing angiogenesis” (priority 2001, published 2005).

Legend:
[1] = system: macrophages; assay: Transmigration of macrophages on MATRIGEL-coated Transwell membranes; type: cell-based, mouse; settings: for migration through MATRIGEL (FIG. 5, in words): cd39-null knockout (KO) macrophages; for number of transmigrated macrophages (normalized to wild-type): cd39-null macrophages, nonstimulated null 80±30.0% of wild-type; for number of transmigrated macrophages (normalized to wild-type) / number of transmigrated macrophages (normalized): MATRIGEL-coated Transwell; for number of transmigrated macrophages (normalized): wild-type macrophages, no endothelial cells, ATP 200 μmol/L, serotonin 20 μmol/L, MCP-1 50 ng/mL
Description: (§1) Transmigration assays through an endothelial cell monolayer were performed (Jones, G. E. J. Leukoc. Biol. 68:593-602, 2000). Murine 2F2B endothelial cells (ATCC) were plated on collagen type 1-coated polycarbonate inserts with 3-μm pores (Costar, Fisher Scientific) and then incubated in RPMI containing 5% FCS overnight to attain full confluence. Wild-type or cd39-null peritoneal macrophages were added to the upper chamber and incubated at 37° C. in 5% CO2 for 10 hours. In the lower chamber, culture media with chemoattractant factors at various combinations were added: ATP 200 μmol/L, serotonin 20 μmol/L, and monocyte chemoattractant factor-1 (MCP-1) 50 ng/mL. Nonadherent cells in both supernatant fluids were counted. In parallel experiments, inserts were precoated with collagen or MATRIGEL® alone. Wild-type and cd39-null macrophages were plated on the upper surface of coated inserts. Cells were allowed to adhere and migrate over a 6-hour period. Cells on the lower surface were fixed in 2% ethanol and stained with 0.2% crystal violet (Sigma). Four fields of vision (×400) per well were randomly chosen, and cell counts were performed manually by 2 observers in a blinded fashion.

[2] = system: peritoneal macrophages; assay: Cytofluorometric (FACS) analysis of macrophage integrin/ICAM-1 surface expression; type: cell-based, mouse; settings: 200 μmol/L, vs control; for αmβ2 (MAC-1) and ICAM-1 coexpression levels: quiescent cd39-null macrophages; for cell surface coexpression of αmβ2 (MAC-1) and ICAM-1: wild-type macrophages, 30 minutes
Description: After isolation, naive peritoneal macrophages were also stimulated for 30 minutes (or for 24 hours) in RPMI+5% FCS, both at 37° C., with ATP 200 μmol/L, or with ATPγS 200 μmol/L, and then washed with PBS. Nonspecific binding of isospecific IgG was controlled by incubation with isospecific IgG conjugated to FITC and phycoerythrin, respectively. Cells were double-stained with phycoerythrin-conjugated rat anti-mouse CD11b in conjunction with FITC-labeled anti-mouse intercellular adhesion molecule (ICAM)-1 (or very late antigen-1, -4), respectively. Fluorescence-activated cell sorter (FACS) analysis was performed (FACSCAN™, Becton Dickinson). Data were analyzed with CELLQUEST™ computer software (Becton Dickinson).

[3] = system: monocyte/macrophages; assay: Transmigration of monocyte/macrophages through an endothelial cell monolayer; type: cell-based, mouse
Description: as §1

[4] = system: ATPDase/CD39; settings: cited from earlier work; for Specific ADPase activity / ATPase activity: HUVEC lysate, n=6; for Specific ADPase activity: mean SD, control liposomes 26.0±3.1; for ATPase activity: control liposomes 28.2±4.6
[5] = system: HUVEC; settings: cited from earlier work
[6] = system: ATPDase/CD39; settings: COS-7 cells; cited from earlier work
[7] = system: CD39 mRNA; settings: HUVEC, 48 h post-transfection; vs scrambled oligonucleotides and control liposomes; cited from earlier work
[8] = system: CD39; settings: HUVEC, cited from earlier work; for immunoreactive intact CD39 (densitometric analysis of Western blot): 48 h after transfection, control liposomes = 100%
[9] = system: HUVEC; settings: cited from earlier work; for rate of ATP hydrolysis by EC: HUVEC after transfection, n=9, liposome treated controls 17.9
[10] = cd39-null monocyte/macrophages, ATP 200 μmol/L or MCP-1 50 ng/mL, spontaneous 6200±1200
[11] = wild-type monocyte/macrophages, ATP 200 μmol/L or MCP-1 50 ng/mL in lower chamber, spontaneous 4900±400

Compound	migration through MATRIGEL (FIG. 5, in words) [1]	number of transmigrated macrophages (normalized to wild-type) [1]	number of transmigrated macrophages (normalized) [1]	αmβ2 (MAC-1) and ICAM-1 coexpression levels [2]	cell surface coexpression of αmβ2 (MAC-1) and ICAM-1 [2]	monocyte/macrophages migrated across the endothelial cell monolayer [3, 10]	monocyte/macrophages migrated across the endothelial cell monolayer [3, 11]	Specific ADPase activity [4]	ATPase activity [4]	Total cell protein content [5]	immunoreactive intact CD39 (densitometric analysis of Western blot) [8]	rate of ATP hydrolysis by EC [9]	also measured
Nc1ncnc2c1ncn2[C@@H]1O[C@H](COP(=O)(O)OP(=O)(O)OP(=O)(O)O)[C@@H](O)[C@H]1O [ATP, adenosine triphosphate]	no substantial effect	108±24%	230±20%	largely unaltered	increased significantly	8,750±4,100 cells	22,300±3,300 cells	–	–	–	–	–	–
5′-CTCCTTTGTATCTTCCATAAGTAGC-3′ (antisense CTCCTTTGTATCTTCCATAAGTAGC; chimeric second generation modifications, further chemistry not given here) [antisense oligonucleotides]	–	–	–	–	–	–	–	9.5±3.4 nmole Pi/min/mg protein	15.1±3.4 nmole Pi/min/mg protein	17.6±2.8 (g/10^6cells	66%	4.8 pmole/min/10^6cells	ATPase activity, of control levels ([4]; HUVEC, residual activity): 53%; ATPase activity, of that for scrambled control oligomers ([4]; HUVEC, residual activity): 51%; Normalized ADPase activity, compared with scrambled oligomers ([4]; HUVEC, residual activity): 42%; Normalized ADPase activity, of control liposomes ([4]; HUVEC, residual activity): 36%; cell viability determined by trypan blue exclusion [5]: over 90%; ADPase levels, of control cells transfected with CD39 cDNA [6]: 15%; ATPase levels, of control cells transfected with CD39 cDNA [6]: approximately 5%; CD39 mRNA expression (Northern blotting) [7]: specifically inhibited transcription of CD39 mRNA; apparent decrease in CD39 protein expression (qualitative Western blotting) ([8]; 48 h): approximately 40%; boost of area under curve estimates of ATP release ([9]; ADP-stimulated HUVEC, over first 15 min, compared to controls): 194%
Nc1ncnc2c1ncn2[C@@H]1O[C@H](COP(=O)(O)OP(=O)(O)OP(O)(O)=S)[C@@H](O)[C@H]1O [ATPγS]	–	–	–	largely unaltered	increased significantly	–	–	–	–	–	–	–	–
NCCc1c[nH]c2ccc(O)cc12 [serotonin]	no substantial effect	98±20.0%	120±20%	–	–	–	–	–	–	–	–	–	–
5′-TTCGTATCTTCGCTAGCTTATACAC-3′ (TTCGTATCTTCGCTAGCTTATACAC; chemistry not given here) [scrambled control oligonucleotides, scrambled control oligonucleotide]	–	–	–	–	–	–	–	22.6±2.1 nmole Pi/min/mg protein	29.1±1.2 nmole Pi/min/mg protein	17.7±1.8 (g/10^6cells	103%	19.6 pmole/min/10^6cells	–
monocyte chemoattractant factor-1 [MCP-1]	–	303±17%	450±20%	–	–	35,200±7,300 cells	61,800±23,400 cells	–	–	–	–	–	–
